# How the values were obtained:
# RbMDH = biological target: T1, RbMDH (Rickettsia bellii, UniProt Q1RIT9); type: biochemical
# T1 construct: gene mdh
# AncMDH2 = type: biochemical, synthetic construct; conditions: 200 uM NADH, 50 mM Tris pH 7.5, 50 mM KCl, 25 C
# T1 sequence (Q1RIT9 whole entry, looked up): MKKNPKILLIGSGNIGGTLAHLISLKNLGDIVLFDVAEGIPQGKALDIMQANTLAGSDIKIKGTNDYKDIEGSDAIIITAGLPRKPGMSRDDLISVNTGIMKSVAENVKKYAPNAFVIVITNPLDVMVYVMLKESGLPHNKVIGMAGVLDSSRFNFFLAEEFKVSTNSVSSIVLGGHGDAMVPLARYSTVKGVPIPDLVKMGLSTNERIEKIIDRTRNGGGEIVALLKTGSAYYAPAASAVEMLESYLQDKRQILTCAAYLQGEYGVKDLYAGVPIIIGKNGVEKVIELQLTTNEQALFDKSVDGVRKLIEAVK
SMILES,KM (RbMDH),Km (AncMDH2) [mM]
O=C(O)CC(=O)C(=O)O [oxaloacetate],RbMDH is a representative α-proteobacterial MDH from Rickettsia bellii,
CC(=O)C(=O)O [pyruvate],,20

# — article PMC4109310, “An atomic-resolution view of neofunctionalization in the evolution of apicomplexan lactate dehydrogenases” (eLife, 2014)
